For four molecules, inhibition results are on record in ChEMBL document CHEMBL4806968, “Hipk inhibitors and methods of use thereof” (2020).

Structures are written as SMILES.

Experiment [1] addresses Fibroblast growth factor receptor 2 (Homo sapiens) (UniProt P21802). The experiment in a line: Inhibition of FGFR2 (unknown origin) at 0.5 uM relative to control.
Experiment [2] addresses Vascular endothelial growth factor receptor 3 (Homo sapiens) (UniProt P35916). The experiment in a line: Inhibition of FLT4 (unknown origin) at 0.5 uM relative to control.
The target of experiment [3] is Tyrosine-protein kinase JAK2 (Homo sapiens) (UniProt O60674). In words: Inhibition of JAK2 (unknown origin) at 0.5 uM relative to control.
Sequence of Tyrosine-protein kinase JAK2 (Homo sapiens) (O60674 whole entry): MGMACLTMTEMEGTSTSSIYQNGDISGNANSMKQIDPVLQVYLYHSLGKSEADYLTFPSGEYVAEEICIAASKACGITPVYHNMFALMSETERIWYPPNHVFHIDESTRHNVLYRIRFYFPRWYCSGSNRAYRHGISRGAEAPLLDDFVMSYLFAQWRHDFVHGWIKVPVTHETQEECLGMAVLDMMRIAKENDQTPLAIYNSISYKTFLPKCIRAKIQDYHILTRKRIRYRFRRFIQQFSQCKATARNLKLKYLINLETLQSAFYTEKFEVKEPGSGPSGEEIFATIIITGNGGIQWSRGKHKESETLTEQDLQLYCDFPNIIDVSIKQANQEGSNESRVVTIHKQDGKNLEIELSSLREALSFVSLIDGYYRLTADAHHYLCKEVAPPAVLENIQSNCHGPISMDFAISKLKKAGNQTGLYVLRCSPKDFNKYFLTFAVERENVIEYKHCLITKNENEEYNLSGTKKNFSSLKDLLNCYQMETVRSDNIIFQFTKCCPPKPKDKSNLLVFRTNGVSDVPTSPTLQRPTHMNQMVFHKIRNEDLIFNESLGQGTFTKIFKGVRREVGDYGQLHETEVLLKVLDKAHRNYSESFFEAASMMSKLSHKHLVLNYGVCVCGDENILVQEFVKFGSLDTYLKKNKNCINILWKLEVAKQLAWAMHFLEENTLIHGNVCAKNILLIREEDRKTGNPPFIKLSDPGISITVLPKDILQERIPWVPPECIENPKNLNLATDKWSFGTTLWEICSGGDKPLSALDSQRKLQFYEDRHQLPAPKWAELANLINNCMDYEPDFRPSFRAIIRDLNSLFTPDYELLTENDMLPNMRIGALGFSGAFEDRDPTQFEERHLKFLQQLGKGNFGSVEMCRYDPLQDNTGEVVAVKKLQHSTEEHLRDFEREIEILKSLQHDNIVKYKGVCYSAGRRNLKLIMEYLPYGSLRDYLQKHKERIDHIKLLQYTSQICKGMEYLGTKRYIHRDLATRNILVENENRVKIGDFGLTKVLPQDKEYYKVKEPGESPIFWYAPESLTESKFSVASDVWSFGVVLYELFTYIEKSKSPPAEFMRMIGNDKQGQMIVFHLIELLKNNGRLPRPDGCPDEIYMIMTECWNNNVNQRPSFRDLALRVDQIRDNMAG
Experiment [4] has as its target MAP kinase-interacting serine/threonine-protein kinase 1 (Homo sapiens) (UniProt Q9BUB5). In words: Inhibition of MNK1 (unknown origin) at 0.5 uM relative to control.

Sequence of MAP kinase-interacting serine/threonine-protein kinase 1 (Homo sapiens) (Q9BUB5 whole entry, looked up): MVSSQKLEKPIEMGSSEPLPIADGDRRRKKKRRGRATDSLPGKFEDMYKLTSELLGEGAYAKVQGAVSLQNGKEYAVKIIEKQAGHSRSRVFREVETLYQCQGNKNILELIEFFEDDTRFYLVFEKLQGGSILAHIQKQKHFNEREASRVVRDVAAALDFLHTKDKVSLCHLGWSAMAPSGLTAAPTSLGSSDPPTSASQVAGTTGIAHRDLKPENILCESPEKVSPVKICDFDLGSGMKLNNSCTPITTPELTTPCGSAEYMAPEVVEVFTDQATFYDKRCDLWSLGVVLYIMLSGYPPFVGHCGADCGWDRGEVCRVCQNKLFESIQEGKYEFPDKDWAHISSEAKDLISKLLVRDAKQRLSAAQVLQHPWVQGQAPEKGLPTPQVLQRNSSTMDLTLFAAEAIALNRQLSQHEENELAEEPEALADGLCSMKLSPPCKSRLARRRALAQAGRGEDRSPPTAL
Sequence of Fibroblast growth factor receptor 2 (Homo sapiens) (P21802 22-821 limits assumed): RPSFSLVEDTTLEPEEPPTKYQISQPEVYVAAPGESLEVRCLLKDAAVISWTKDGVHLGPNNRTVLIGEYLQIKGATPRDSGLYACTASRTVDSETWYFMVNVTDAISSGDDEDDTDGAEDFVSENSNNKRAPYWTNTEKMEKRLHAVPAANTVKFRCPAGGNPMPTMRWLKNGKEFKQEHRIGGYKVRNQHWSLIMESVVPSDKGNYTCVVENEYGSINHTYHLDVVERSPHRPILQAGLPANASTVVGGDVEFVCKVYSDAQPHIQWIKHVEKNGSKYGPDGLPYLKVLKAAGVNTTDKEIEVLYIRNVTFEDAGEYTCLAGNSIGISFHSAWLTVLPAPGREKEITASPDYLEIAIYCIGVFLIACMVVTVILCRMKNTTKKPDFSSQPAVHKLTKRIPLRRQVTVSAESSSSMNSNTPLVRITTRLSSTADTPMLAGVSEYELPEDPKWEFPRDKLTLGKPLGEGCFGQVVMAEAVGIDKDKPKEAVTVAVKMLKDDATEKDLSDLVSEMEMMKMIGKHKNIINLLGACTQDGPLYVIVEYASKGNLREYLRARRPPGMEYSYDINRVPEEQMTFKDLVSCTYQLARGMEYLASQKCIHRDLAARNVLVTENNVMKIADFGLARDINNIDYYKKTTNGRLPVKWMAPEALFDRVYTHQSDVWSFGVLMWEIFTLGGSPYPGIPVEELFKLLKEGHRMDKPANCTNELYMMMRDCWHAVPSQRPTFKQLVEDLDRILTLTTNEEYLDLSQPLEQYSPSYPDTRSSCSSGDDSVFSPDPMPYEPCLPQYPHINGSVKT
Sequence of Vascular endothelial growth factor receptor 3 (Homo sapiens) (P35916 whole entry): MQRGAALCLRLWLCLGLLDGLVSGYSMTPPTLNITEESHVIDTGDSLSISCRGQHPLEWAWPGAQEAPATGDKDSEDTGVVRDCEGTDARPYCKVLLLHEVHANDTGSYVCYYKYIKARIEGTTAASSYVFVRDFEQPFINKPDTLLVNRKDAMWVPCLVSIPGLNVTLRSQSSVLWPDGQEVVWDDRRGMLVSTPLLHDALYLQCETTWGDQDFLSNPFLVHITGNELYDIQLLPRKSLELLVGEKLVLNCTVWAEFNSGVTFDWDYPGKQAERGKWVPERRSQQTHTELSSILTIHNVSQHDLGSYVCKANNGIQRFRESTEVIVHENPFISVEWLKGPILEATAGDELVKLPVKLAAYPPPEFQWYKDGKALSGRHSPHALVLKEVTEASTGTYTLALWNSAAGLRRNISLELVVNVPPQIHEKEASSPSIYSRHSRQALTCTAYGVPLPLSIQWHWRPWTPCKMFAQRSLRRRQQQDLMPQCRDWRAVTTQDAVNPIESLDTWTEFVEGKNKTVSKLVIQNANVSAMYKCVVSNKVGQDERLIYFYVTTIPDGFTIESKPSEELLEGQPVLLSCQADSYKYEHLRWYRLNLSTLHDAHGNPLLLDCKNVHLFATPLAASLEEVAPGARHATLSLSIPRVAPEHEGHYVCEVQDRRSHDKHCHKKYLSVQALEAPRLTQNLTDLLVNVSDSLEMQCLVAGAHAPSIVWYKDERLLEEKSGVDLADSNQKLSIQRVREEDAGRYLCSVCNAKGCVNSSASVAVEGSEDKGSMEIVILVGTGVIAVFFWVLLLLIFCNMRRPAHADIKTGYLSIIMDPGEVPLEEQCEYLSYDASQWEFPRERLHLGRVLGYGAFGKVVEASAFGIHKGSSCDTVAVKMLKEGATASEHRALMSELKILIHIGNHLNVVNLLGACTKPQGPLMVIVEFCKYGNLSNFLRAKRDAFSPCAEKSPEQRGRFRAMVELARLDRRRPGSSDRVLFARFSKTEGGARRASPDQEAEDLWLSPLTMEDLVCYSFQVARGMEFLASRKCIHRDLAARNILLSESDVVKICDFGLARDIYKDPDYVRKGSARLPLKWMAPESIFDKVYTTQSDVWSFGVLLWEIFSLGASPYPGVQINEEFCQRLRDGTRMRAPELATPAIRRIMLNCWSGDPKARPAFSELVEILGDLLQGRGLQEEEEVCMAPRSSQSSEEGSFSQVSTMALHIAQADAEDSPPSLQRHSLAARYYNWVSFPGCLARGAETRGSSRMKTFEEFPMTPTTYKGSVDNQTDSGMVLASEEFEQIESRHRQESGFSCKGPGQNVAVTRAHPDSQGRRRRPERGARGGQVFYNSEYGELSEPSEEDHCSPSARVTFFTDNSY

By inhibition is commonly meant the relative decrease from the control value, in per cent. A higher inhibition goes with a strong effect. With `CNC(=O)c1cc(Oc2ccc(NC(=O)c3nc(S(C)(=O)=O)sc3-c3ccc(F)cc3)cc2)ccn1`, the inhibition in experiment [1] came to 11%. With `CNC(=O)c1cc(Oc2ccc(NC(=O)c3nc(C(F)(F)F)sc3-c3ccc(F)cc3)cc2)ccn1`, the inhibition in experiment [2] amounted to 25%. As to `CSc1nc(C(=O)Nc2ccc(Oc3cc4cnn(C)c4cc3Br)cc2)c(-c2ccc(F)cc2)o1`, the inhibition in experiment [3] is 14%. In experiment [4], `CNC(=O)c1cc(Oc2ccc(NC(=O)c3n[nH]nc3-c3ccc(F)cc3)cc2)ccn1` displayed an inhibition of 54%.
